Laboratory results from PubChem BioAssay AID2842 (Southern Research Institute, 2010).
Values after ≈ are worked out from the molar mass of the structure shown.

test system: M. tuberculosis H37Rv growth inhibition; experiment: Mycobacterium tuberculosis H37Rv growth inhibition, putative kinase inhibitor library, confirmatory dose response (AID 2842);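 also: bacteria incubated one week before Alamar blue readout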

Compound | IC90
COc1ccc2nc(Nc3nc(-c4ccccn4)cs3)sc2c1 | < 0.2 µg/mL
COc1cccc(C(=O)Nc2nc(-c3cccs3)cs2)c1 | 19.5 µg/mL (≈ 61.5 µM)
COc1ccc(OCC(=O)Nc2ccc(I)cc2C)cc1 | 3.2 µg/mL (≈ 8.06 µM)
O=C(COc1ccccc1)Nc1nnc(-c2ccc3c(c2)CCCC3)o1 | 6.48 µg/mL (≈ 18.5 µM)
CCc1ccc(-c2ccc(SCC(N)=O)nn2)cc1 | 4.66 µg/mL (≈ 17 µM)
O=C(Cc1cccc2ccccc12)Nc1nnc(-c2ccc(F)cc2)o1 | 22.4 µg/mL (≈ 64.4 µM)
COc1ccc(Nc2nc(N3CCN(Cc4ccccc4)CC3)nc3nccnc23)cc1 | 4.69 µg/mL (≈ 11 µM)
CC1(C)Cc2c(sc(NC(=O)c3ccc(Cc4ccccc4)cc3)c2C(N)=O)C(C)(C)N1 | 10.4 µg/mL (≈ 23.3 µM)
Cc1c(Cl)ccc2sc(N(CCCn3ccnc3)C(=O)COc3ccccc3)nc12 | 3.05 µg/mL (≈ 6.92 µM)
O=C(Nc1nnc(-c2ccc3c(c2)CCCC3)o1)C1=COCCO1 | 9.82 µg/mL (≈ 30 µM)
O=C(c1cccs1)N(CCCn1ccnc1)c1nc2ccc(F)cc2s1 | 3.01 µg/mL (≈ 7.79 µM)
Cc1ccc(-c2nnc(NC(=O)c3cc4ccccc4oc3=O)o2)c(C)c1 | 1.36 µg/mL (≈ 3.76 µM)
O=C(Nc1nnc(-c2cc(Cl)ccc2Cl)o1)C1CC1 | 7.42 µg/mL (≈ 24.9 µM)
Cc1nc2c(ccc3nc(NC(=O)c4ccco4)sc32)s1 | 35 µg/mL (≈ 111 µM)
COc1ccc(CNC(=O)c2c(C)oc3c2C(=O)c2ccccc2C3=O)cc1 | 1.1 µg/mL (≈ 2.93 µM)
COC(=O)c1ccc(CSc2nnc(-c3ccncc3)o2)o1 | 5.77 µg/mL (≈ 18.2 µM)
c1csc(Nc2nc3cc4c(cc3s2)OCO4)n1 | 8.57 µg/mL (≈ 30.9 µM)
COc1cc2c3nnc(-c4ccc(Cl)cc4)c-3cn(Cc3ccccc3F)c2cc1OC | 22.2 µg/mL (≈ 49.7 µM)
N#C/C(=C(\O)c1ccc2c(c1)OCCO2)c1nc2ccccc2s1 | 37.7 µg/mL (≈ 112 µM)
CCCCOc1cccc(C(=O)Nc2nnc(-c3cc(C)ccc3C)o2)c1 | 12.4 µg/mL (≈ 33.9 µM)
N#C/C(=C\c1ccc([N+](=O)[O-])cc1)c1nc2ccccc2[nH]1 | 6.12 µg/mL (≈ 21.1 µM)
c1ccc(CSc2ncnc3nc[nH]c23)cc1 | 19.5 µg/mL (≈ 80.3 µM)
COC(=O)c1c(NC(=O)c2ccc(C)c(C)c2)sc2c1CCN(C(C)=O)C2 | 48 µg/mL (≈ 124 µM)
COc1cccc2sc(Nc3nc4c(s3)C(=O)CC(C)(C)C4)nc12 | 7.52 µg/mL (≈ 20.9 µM)

Compound | IC90
COc1ccc(-c2nc(C(N)=O)c3[nH]c(=O)n(-c4ccc(C(C)(C)C)cc4)c3n2)c(OC)c1 | 17.3 µg/mL (≈ 38.7 µM)
CSc1nc2ccc3nc(NC(=O)c4cc5ccccc5oc4=O)sc3c2s1 | 26.1 µg/mL (≈ 61.3 µM)
O=C(Nc1nnc(-c2ccccc2)o1)c1ccc2c(c1)CCCC2 | 15.5 µg/mL (≈ 48.7 µM)
Cn1c(=O)c2c(nc(SCC(=O)c3ccccc3)n2Cc2ccc(F)cc2)n(C)c1=O | 31.8 µg/mL (≈ 72.4 µM)
CCOC(=O)N1CCc2c(sc(NC(=O)c3ccccc3)c2C(N)=O)C1 | 1.84 µg/mL (≈ 4.93 µM)
O=C(c1ccc(Nc2nc(-c3ccccc3)c3cc(Br)ccc3n2)cc1)N1CCCC1 | 21.1 µg/mL (≈ 44.6 µM)
COc1ccc(C(=O)/C=C2\C(=O)Nc3ccccc32)cc1 | 38.6 µg/mL (≈ 138 µM)
COc1ccc(C(=O)Nc2nnc(C3=COCCO3)o2)cc1 | 3.3 µg/mL (≈ 10.9 µM)
Cc1ccc(C(=O)c2cn(Cc3ccc(F)cc3)c3ccc(F)cc3c2=O)cc1 | 12.5 µg/mL (≈ 32.2 µM)
O=C(Nc1nnc(-c2cc(Cl)ccc2Cl)o1)c1ccc(Cl)s1 | 1.86 µg/mL (≈ 4.96 µM)
COc1cc2ccccc2cc1C(=O)Nc1nccs1 | 30.2 µg/mL (≈ 106 µM)
COc1ccc(C(=O)Nc2nnc(-c3ccc(C)cc3C)o2)cc1 | 23.6 µg/mL (≈ 72.9 µM)
Cc1ccc(C)c(-c2nnc(NC(=O)/C=C/c3cccs3)o2)c1 | 54.5 µg/mL (≈ 168 µM)
O=c1c2[nH]c3ccccc3c2nc(SCCN2CCCCC2)n1-c1ccccc1F | 14.6 µg/mL (≈ 34.6 µM)
O=C(Nc1nnc(-c2cc(Cl)ccc2Cl)o1)c1c(F)cccc1F | 3.48 µg/mL (≈ 9.4 µM)
CC(C)(C)/C(O)=C(/C#N)c1nc2ccccc2[nH]1 | 16.6 µg/mL (≈ 68.6 µM)
COc1cccc(NCCCn2c(C)cn3c4c(=O)[nH]c(=O)n(C)c4nc23)c1 | 46.2 µg/mL (≈ 121 µM)
CN(C)S(=O)(=O)c1ccc(C(=O)Nc2nnc(-c3ccc(Br)cc3)o2)cc1 | 6.69 µg/mL (≈ 14.8 µM)
CCCCOc1ccc(C(=O)Nc2nnc(-c3ccco3)o2)cc1 | 0.8 µg/mL (≈ 2.44 µM)
COC(=O)C(C)Oc1ccc2cc(-c3ccc(OC)c(OC)c3)c(=O)oc2c1 (configuration not stated) | 6.7 µg/mL (≈ 17.4 µM)
CC1CCc2c(sc(Nc3nc4c(F)cccc4s3)c2C(N)=O)C1 (configuration not stated) | 8.58 µg/mL (≈ 23.7 µM)
O=C(OCc1ccco1)c1cc2ccccc2oc1=O | 20.4 µg/mL (≈ 75.3 µM)
Cc1ccc2sc(NNC(=O)c3cc4ccccc4oc3=O)nc2c1C | 4.21 µg/mL (≈ 11.5 µM)
Cc1cc(NCCCn2ccnc2)n2ncc(-c3ccccc3)c2n1 | 3.12 µg/mL (≈ 9.39 µM)

Compound | IC90
COc1ccccc1-c1nnc(NC(=O)CCc2ccccc2)o1 | 6.99 µg/mL (≈ 21.6 µM)
COc1cccc(-c2csc(NC(=O)c3ccc4c(c3)OCCO4)n2)c1 | 14.3 µg/mL (≈ 39 µM)
O=C(NNc1nc2c(F)cc(F)cc2s1)c1nc2ccccc2s1 | 21.8 µg/mL (≈ 60.2 µM)
Cc1ccccc1C(=O)Nc1nnc(-c2cc(Cl)ccc2Cl)o1 | 1.27 µg/mL (≈ 3.65 µM)
Cc1ccc(C)c(C(=O)Nc2nnc(-c3ccc(C)c(C)c3)o2)c1 | 2.66 µg/mL (≈ 8.28 µM)
COc1ccccc1C(=O)Nc1nnc(-c2ccc(F)cc2)o1 | 34.9 µg/mL (≈ 111 µM)
Cc1[nH]c2ccccc2c1/C=N/NC(=O)c1cc(-c2ccc(Br)s2)[nH]n1 | 12.2 µg/mL (≈ 28.6 µM)
CC(=O)N1CCc2c(sc(NC(=O)c3ccc(C)c(C)c3)c2C(N)=O)C1 | 3.4 µg/mL (≈ 9.15 µM)
Cc1ccc(C)c(-c2nnc(NC(=O)c3ccc([N+](=O)[O-])o3)o2)c1 | 1.29 µg/mL (≈ 3.93 µM)
COc1ccccc1Cn1cc2c(-c3ccc(F)cc3)nnc-2c2cc(OC)c(OC)cc21 | 22 µg/mL (≈ 49.7 µM)
Cc1nnc2ccc(-c3cccc(NC(=O)c4cccc(C(F)(F)F)c4)c3)nn12 | 22.6 µg/mL (≈ 56.7 µM)
COC(=O)c1ccc(NC(=O)CSc2nc(-c3ccc(C)cc3)ns2)cc1 | 21.3 µg/mL (≈ 53.4 µM)
Cc1ccc(Nc2nc(N3CCN(c4ccccc4)CC3)nc3nccnc23)cc1C | 32 µg/mL (≈ 77.7 µM)
O=C1C(Cl)=C(Nc2ccccc2O)C(=O)N1c1ccccc1 | 3.29 µg/mL (≈ 10.5 µM)
Cc1cc(C)c2nc(NNC(=O)c3cc4ccccc4oc3=O)sc2c1 | 2.16 µg/mL (≈ 5.91 µM)
O=C(Nc1nnc(-c2ccco2)o1)C1CCCCC1 | 50.4 µg/mL (≈ 193 µM)
O=C(CCOc1ccccc1)Nc1nnc(-c2ccc3c(c2)CCCC3)o1 | 18.1 µg/mL (≈ 49.8 µM)
CC(C)(C)C(=O)Nc1nnc(-c2ccc(Br)cc2)o1 | < 0.2 µg/mL
Cc1ccc(-c2nnc(NC(=O)c3ccccc3)o2)c(C)c1 | 8.78 µg/mL (≈ 29.9 µM)
O=C(Nc1ncc(Cc2ccc(F)cc2)s1)c1cccc(-n2cnnn2)c1 | 10.2 µg/mL (≈ 26.7 µM)
O=C(Nc1nnc(C2=COCCO2)o1)c1ccc(Oc2ccccc2)cc1 | 16.8 µg/mL (≈ 46 µM)
COc1cc2c3nnc(-c4ccc(C)c(C)c4)c-3cn(Cc3ccc(C)cc3)c2cc1OC | 1.55 µg/mL (≈ 3.54 µM)
COc1cccc(C(=O)Nc2nc3c(s2)CC(C)CC3)c1 (configuration not stated) | 14.1 µg/mL (≈ 46.7 µM)
O=C(Nc1nnc(-c2ccc(F)cc2)o1)c1cccc([N+](=O)[O-])c1 | 13.2 µg/mL (≈ 40.2 µM)

Compound | IC90
Cc1ccc(NCCn2c(C)cn3c4c(=O)[nH]c(=O)n(C)c4nc23)cc1 | 15.1 µg/mL (≈ 42.9 µM)
Cc1ccc2nc(N(CCCn3ccnc3)C(=O)c3ccco3)sc2c1 | 0.48 µg/mL (≈ 1.31 µM)
CC(C)C(=O)Nc1nnc(-c2cc(Cl)ccc2Cl)o1 | 26.9 µg/mL (≈ 89.5 µM)
C=CCOC(=O)COc1ccc2cc(-c3ccc(OC)cc3)c(=O)oc2c1 | 3.58 µg/mL (≈ 9.77 µM)
O=C(CSc1n[nH]c(=O)[nH]c1=O)c1ccccc1 | 12.1 µg/mL (≈ 45.9 µM)
Cc1cccc2sc(N(CCCn3ccnc3)C(=O)c3ccco3)nc12 | 0.83 µg/mL (≈ 2.26 µM)
Cc1ccc(C)c(-c2nnc(NC(=O)c3c(F)cccc3F)o2)c1 | 5.74 µg/mL (≈ 17.4 µM)
O=C(Nc1nnc(-c2ccc(Br)cc2)o1)c1ccc(S(=O)(=O)N2CCOCC2)cc1 | 5.28 µg/mL (≈ 10.7 µM)
Cc1ccc(-c2nnc(NC(=O)CCOc3ccccc3)o2)c(C)c1 | 1.8 µg/mL (≈ 5.34 µM)
COc1ccc(C(=O)N(CCCn2ccnc2)c2nc3c(C)ccc(C)c3s2)cc1OC | 17 µg/mL (≈ 37.7 µM)
NC(=O)c1c(Nc2nc3ccc(F)cc3s2)sc2c1CCCC2 | 51.3 µg/mL (≈ 148 µM)
O=C(Nc1cccc(Cl)c1)Nc1c2c(nn1-c1ccccc1)CSC2 | 19.7 µg/mL (≈ 53.2 µM)
O=C(c1cccs1)N(CCCn1ccnc1)c1nc2c(Cl)cccc2s1 | 5.18 µg/mL (≈ 12.9 µM)
Fc1cccc2sc(Nc3nnc(-c4ccco4)o3)nc12 | 2.08 µg/mL (≈ 6.88 µM)
O=C(COc1ccc(Cl)cc1)N1CCN(c2ccc(N3CCCCC3)nn2)CC1 | 14.3 µg/mL (≈ 34.3 µM)
CCc1cccc2sc(N(CCCn3ccnc3)C(=O)/C=C/c3cccs3)nc12 | 0.83 µg/mL (≈ 1.96 µM)
Cc1ccc(C)c(-c2nnc(NC(=O)CCc3ccccc3)o2)c1 | 10.9 µg/mL (≈ 33.8 µM)
Nc1[nH]nc2nc(N3CCCCC3)nc(-c3ccc4c(c3)OCO4)c12 | 11.6 µg/mL (≈ 34.3 µM)
Fc1cccc2sc(Nc3nnc(-c4ccccc4)o3)nc12 | 9.14 µg/mL (≈ 29.3 µM)
Cc1ccc(C(=O)Nc2nnc(-c3ccc(C)cc3C)o2)cc1 | 33.5 µg/mL (≈ 109 µM)
c1c2c(cc3sc(N4CCCC4)nc13)OCO2 | < 0.2 µg/mL
CCc1ccc(-c2nnc3c4cc5c(cc4n(Cc4ccccc4F)cc2-3)OCCO5)cc1 | 6.34 µg/mL (≈ 14.4 µM)
O=C(CCSc1ccccc1)Nc1nc(-c2ccccn2)cs1 | 21.8 µg/mL (≈ 63.9 µM)
CCOC(=O)c1c(NC(=O)c2cccc3ccccc23)sc2c1CCN(CC)C2 | 5.45 µg/mL (≈ 13.3 µM)

Compound | IC90
COc1cccc(C(=O)N(CCCn2ccnc2)c2nc3ccc(F)cc3s2)c1OC | 6.75 µg/mL (≈ 15.3 µM)
CSc1cccc2sc(Nc3cccc(Br)c3)nc12 | 6.73 µg/mL (≈ 19.2 µM)
O=C(Nc1nnc(-c2ccc3c(c2)OCCO3)o1)c1ccccc1Br | 12.6 µg/mL (≈ 31.4 µM)
O=C(COc1ccc(Cl)cc1)NCCSc1ncc(-c2ccc(F)cc2)[nH]1 | 10 µg/mL (≈ 24.6 µM)
O=C(Nc1nnc(-c2ccc3c(c2)CCCC3)o1)C1CCCCC1 | 40.2 µg/mL (≈ 124 µM)
Cc1ccc(C)c(-c2nnc(NC(=O)c3cc(Cl)sc3Cl)o2)c1 | 2.16 µg/mL (≈ 5.87 µM)
COc1ccccc1-c1nnc(NC(=O)c2ccco2)o1 | 13.4 µg/mL (≈ 46.9 µM)
COC(=O)c1c(NC(=O)c2ccccc2Cl)sc2c1CC(C)(C)NC2(C)C | 44.8 µg/mL (≈ 110 µM)
CCN(CC)S(=O)(=O)c1ccc(C(=O)Nc2nnc(-c3cc(C)ccc3C)o2)cc1 | 13.1 µg/mL (≈ 30.5 µM)
CC(C)N1CCc2c(sc(NC(=O)c3ccc(Oc4ccccc4)cc3)c2C(N)=O)C1 | 12.5 µg/mL (≈ 28.7 µM)
Cc1ccc(-n2ncc3c(NC(C)C)ncnc32)cc1Cl | 64 µg/mL (≈ 212 µM)
Cc1ccc(-c2nnc(NC(=O)c3cc([N+](=O)[O-])ccc3Cl)o2)c(C)c1 | 1.57 µg/mL (≈ 4.21 µM)
CCCCC(=O)Nc1nnc(-c2ccc(Cl)s2)o1 | 3.23 µg/mL (≈ 11.3 µM)
CCOC(=O)c1c(NC(=O)CCl)sc2c1CCCC2 | 29.8 µg/mL (≈ 98.8 µM)
CCC(=O)Nc1nnc(-c2ccc(OC)cc2)o1 | 4.39 µg/mL (≈ 17.8 µM)
Cc1cc(NC2CCCC2)n2ncc(-c3ccccc3)c2n1 | 9.88 µg/mL (≈ 33.8 µM)
COc1ccc(-n2nnc3c(SCC(N)=O)ncnc32)cc1 | 5.67 µg/mL (≈ 17.9 µM)
O=C(COc1ccc2ccccc2c1)Nc1nnc2n1CCS2 | 23.6 µg/mL (≈ 72.2 µM)
CN(c1ccccc1)S(=O)(=O)c1ccc(C(=O)Nc2nnc(-c3ccco3)o2)cc1 | 8.33 µg/mL (≈ 19.6 µM)
O=C(Nc1ccc(S(=O)(=O)N2CCC(c3nc4ccccc4[nH]3)CC2)cc1)c1cccc(Cl)c1 | 0.86 µg/mL (≈ 1.74 µM)
CSc1nnc(C)c(=O)n1COC(=O)c1ccc2ccccc2c1 | 3.38 µg/mL (≈ 9.9 µM)
